Read-outs that look alike come from different tables or passages of the source.
How the values were obtained:
[1] = test system: PfCLK3 kinase domain (334–699); assay: Intact protein mass spectrometry, covalent adduct formation; type: binding, Plasmodium falciparum; settings: for Covalent Adduct Formation (%): pH 7.4, 4 h incubation
From the text: Covalent adduct formation was investigated by intact protein mass spectrometry.

[2] = test system: asexual P. falciparum 3D7 parasites; assay: Time of inhibition assays in 3D7 parasites; type: cell-based; settings: Plasmodium falciparum, read at 72 hpi
Protocol: Synchronised parasites between 0.4 and 0.6% parasitemia at 4% hematocrit were plated in 384 well plates. To early ring stage plate (0−) rings, serially diluted drugs were added to the parasites in triplicate and incubated as plate 1. At 16 hpi, late ring stage parasites were exposed to the same drug concentrations previously diluted as in plate 1. This was repeated for 24 hpi plates. […] As described previously, the plates were thawed at RT for about an hour before they were SyBr green stained in lysis buffer.

Structure (SMILES)	covalent adduct formation (observed or not) ([1]; pH 7.4, 4 h)	Covalent Adduct Formation (%) [1] [%]	covalent adduct formation (observed or not) ([1]; pH raised to 9)	EC50 ([2]; dosed at 16 hpi, read-out: pEC50 (3D7) 16 hpi (converted)) [nM]	EC50 ([2]; dosed at 24 hpi, read-out: pEC50 (3D7) 24 hpi (converted)) [nM]	EC50 ([2]; dosed at early-ring stage (0 h), read-out: pEC50 (3D7) 0-3 hpi (converted)) [nM]
C=CC(=O)N1CCN(Cc2ccc(OC)c(-c3cc4c(-c5ccc(C(=O)O)cc5)ccnc4[nH]3)c2)CC1 [Compound 2, 4-[2-(2-methoxy-5-{[4-(prop-2-enoyl)piperazin-1-yl]methyl}phenyl)-1H-pyrrolo[2,3-b]pyridin-4-yl]benzoic Acid]	no covalent adduct formation was observed	0	adduct formation was observed	–	–	–
C[C@@H]1CC[C@H]2[C@@H](C)C(=O)O[C@@H]3O[C@@]4(C)CC[C@@H]1[C@]32OO4 [Artemisinin]	–	–	–	112	95.5	13.5
COc1ccc(CN2CCN(C(=O)/C=C/CN(C)C)CC2)cc1-c1cc2c(-c3ccc(C(=O)O)cc3)ccnc2[nH]1 [Compound 3, 4-{2-[5-({4-[(2E)-4-(dimethylamino)but-2-enoyl]piperazin-1-yl}methyl)-2-methoxyphenyl]-1H-pyrrolo[2,3-b]pyridin-4-yl}benzoic Acid]	no adduct formation	0	–	–	–	–

From article PMC11571108, “Targeting PfCLK3 with Covalent Inhibitors: A Novel Strategy for Malaria Treatment” (Journal of Medicinal Chemistry, 2024)
